These results are taken from patent US12058988B2, “Warm water immersion-based hatching method of silkworm eggs” (Sericulture and Agri-Food Research Institute, Guangdong …, priority 2021, dated 2024).

Test [1] relates to silkworm eggs. The following applies: cited from earlier work; for hatching rate: silkworm eggs 20 h after oviposition, 15% acid treatment (Manqiao Jiang et al.).
Test [2] relates to silkworm eggs. In words: Practical hatching rate of silkworm eggs after immersion treatment. The following applies: "Liangguang 2" quaternary hybrid, 18 h after laying, specific gravity 1.075, 46° C. for 5 min. The test is classed as in vivo, Bombyx mori.
Method: After laying eggs, “Liangguang 2” silkworm eggs were placed at 25° C.±1° C. and a humidity of 80%±5% for protection; the silkworm eggs with egg ages of 11 h, 13 h, 15 h, 17 h, 19 h, 21 h and 23 h were placed in an aqueous solution (containing 0.2 g/L of chitosan, 0.1 g/L of hydroxypropyl cellulose and 0.1 g/L of γ-aminobutyric acid) and then treated at 50° C. for 15 s, followed by taking out and air-drying for 25 min; and the silkworm eggs were subjected to incubation and hatching, wherein 3 replicates were set for each treatment. A practical hatching rate was calculated according to formula I, and an egg age-practical hatching rate curve was drawn. Practical hatching rate (%)=number of newly-hatched silkworms in two days/the total number of good eggs×100% formula I
17 h after laying eggs, silkworm eggs of a “Liangguang 2” quaternary hybrid were treated in a 50° C. aqueous solution (containing 0.1 g/L of chitosan, 0.2 g/L of hydroxypropyl cellulose and 0.05 g/L of γ-aminobutyric acid) for 20 s, followed by taking out for air-drying, incubation and hatching.
A practical hatching rate was counted. […]
Test [3] has as its system silkworm eggs of a "Liangguang 2" quaternary hybrid. In words: Feeding results of larvae after treating silkworm eggs by warm water hatching and hydrochloric acid hatching. The following applies: eggs treated 18 h after laying, larvae fed after hatching. The test is classed as in vivo, Bombyx mori. The method, then: 18 h after laying eggs, silkworm eggs of a “Liangguang 2” quaternary hybrid were treated in a hydrochloric acid solution (at a specific gravity of 1.075, 46° C.) for 5 min, followed by taking out for air-drying, incubation and hatching. Statistics was conducted on cocooning rate, whole cocoon weight, cocoon shell weight, cocoon shell rate and 10,000-silkworm cocoon weight.
18 h after laying eggs, silkworm eggs of a “Liangguang 2” quaternary hybrid were treated in a 50° C. warm aqueous solution (containing 0.2 g/L of chitosan, 0.1 g/L of hydroxypropyl cellulose and 0.1 g/L of γ-aminobutyric acid) for 20 s, followed by taking out for air-drying, incubation and hatching. Statistics was conducted on cocooning rate, whole cocoon weight, cocoon shell weight, cocoon shell rate and 10,000-silkworm cocoon weight.

Like-named read-outs stand apart in the source and are kept apart here.

On to `CC(=O)O` [acetic acid], for which the hatching rate entry in the test with silkworm eggs [1] is reported as “relatively low hatching rate”.
For the compound `C[S+](C)[O-]` [dimethyl sulfoxide], in the test with silkworm eggs [1] (Yamamoto et al.), the “effect of preventing diapause” value is 78%.
As to `O=[N+]([O-])O` [nitric acid], the hatching rate result in the test on silkworm eggs [1] was “not less than 95%”.
Take `Cl` [hydrochloric acid]: the hatching rate in the test with silkworm eggs [2] stood at 95.86%. In test [3], the “10,000-silkworm cocoon weight” value stood at 13.05 kg, the Cocoon shell rate stood at 19.42%, the Cocoon shell weight turned out to be 0.26 g and the Cocooning rate was 96.27%. Further, in test [3], the Whole cocoon weight is listed as 1.35 g.
`O=P(O)(O)O` [phosphoric acid]: the hatching rate entry with silkworm eggs [1] is reported as “relatively low hatching rate”.
